Experimental data as given in PubChem BioAssay AID743462 (Vanderbilt Specialized Chemistry Center, 2014).

Target: Metabotropic glutamate receptor 8 (Rattus norvegicus) (UniProt P70579)
Test: mGlu8 positive allosteric modulator potency, confirmation, cell-based, rat receptor, GIRK thallium flux (AID 743462)

Sequence of Metabotropic glutamate receptor 8 (Rattus norvegicus) (P70579 whole entry, looked up): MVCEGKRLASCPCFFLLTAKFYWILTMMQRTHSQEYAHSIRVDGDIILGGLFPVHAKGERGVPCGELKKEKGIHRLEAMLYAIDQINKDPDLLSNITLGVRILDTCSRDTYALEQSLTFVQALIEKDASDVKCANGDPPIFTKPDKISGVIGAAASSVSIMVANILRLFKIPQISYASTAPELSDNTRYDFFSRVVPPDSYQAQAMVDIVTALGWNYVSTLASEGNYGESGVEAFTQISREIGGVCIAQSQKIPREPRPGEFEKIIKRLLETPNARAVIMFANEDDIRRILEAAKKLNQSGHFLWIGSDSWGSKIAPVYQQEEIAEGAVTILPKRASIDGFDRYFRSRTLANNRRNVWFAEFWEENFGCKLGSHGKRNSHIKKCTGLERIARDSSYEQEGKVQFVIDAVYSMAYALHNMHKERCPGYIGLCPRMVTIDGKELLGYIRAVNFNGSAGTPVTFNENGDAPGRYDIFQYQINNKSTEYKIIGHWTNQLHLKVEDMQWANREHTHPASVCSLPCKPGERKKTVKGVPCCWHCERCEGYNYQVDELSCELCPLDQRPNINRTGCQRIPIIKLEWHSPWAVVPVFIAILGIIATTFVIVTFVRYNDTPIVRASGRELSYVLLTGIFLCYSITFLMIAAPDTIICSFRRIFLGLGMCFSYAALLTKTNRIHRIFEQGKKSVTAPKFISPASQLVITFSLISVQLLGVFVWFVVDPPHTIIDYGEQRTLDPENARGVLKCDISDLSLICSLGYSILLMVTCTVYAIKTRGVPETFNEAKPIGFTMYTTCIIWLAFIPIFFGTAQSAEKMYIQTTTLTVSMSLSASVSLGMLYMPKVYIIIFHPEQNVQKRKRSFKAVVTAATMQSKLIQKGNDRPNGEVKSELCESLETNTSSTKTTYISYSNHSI

COC(=O)c1ccc(-n2c(C)cc(C(=O)CSc3ccc(NC(C)=O)cc3)c2C)cc1
EC50: 1800 nM
